This is an account of results in patent US11891359B2, “Prenylated psilocybin derivatives and methods of using” (ENVERIC B[…] INC., priority 2021, dated 2024).

One assay concerns the target T1, 5-HT2A receptor (Homo sapiens, UniProt P28223).
T1 construct: purchased PerkinElmer ES-313-M400UA
The experiment in a line: [3H]ketanserin competition binding assay (Scintillation Proximity Assay) on membranes containing 5-HT2A. The settings on record: fixed 1 nM [3H]ketanserin; for competition binding curve result (binding / no binding): psilocin 30 pM to 10 μM, tryptophan 3 nM to 1 mM, FIGS. 14C, 14D. From the text:
Evaluation of drug binding is an essential step to characterization of all drug-target interactions (Fang 2012, Exp Opin Drug Discov 7:969). The binding affinity of a drug to a target is traditionally viewed as an acceptable surrogate of its in vivo efficacy (Núñez et al., 2012, Drug Disc Today 17: 10). Competition assays, also called displacement or modulation binding assays, are a common approach to measure activity of a ligand at a target receptor (Flanagan 2016, Methods Cell Biol 132: 191). In these assays, standard radioligands acting either as agonists or antagonists are ascribed to specific receptors. In the case of G protein-coupled receptor 5-HT2A, [^3H]ketanserin is a well-established antagonist used routinely in competition assays to evaluate competitive activity of novel drug candidates at the 5-HT2A receptor (Maguire et al., 2012, Methods Mol Biol 897: 31). Thus, to evaluate activity of novel psilocybin derivatives at the 5-HT2A receptor, competition assays using [^3H]ketanserin were employed as follows. SPA beads (RPNQ0010), [^3H] ketanserin (NET1233025UC), membranes containing 5-HT2A (ES-313-M400UA), and isoplate-96 microplate (6005040) were all purchased from PerkinElmer. Radioactive binding assays were carried out using Scintillation Proximity Assay (SPA). […] After incubation, the samples were read on a MicroBeta 2 Microplate Counter (Perkin Elmer). […] Equilibrium binding constants for ketanserin (Kd) were determined from saturation binding curves using the ‘one-site saturation binding analysis’ method of GraphPad PRISM software (Version 9.2.0). […] Ki values were calculated from the competition displacement data using the competitive binding analysis from GraphPad PRISM software. […] Specific binding in counts per minute (cpm) was calculated by subtracting non-specific binding from total binding. Specific binding (pmol/mg) was calculated from pmol of [^3H]ketanserin bound per mg of protein in the assay. The Kd was calculated by fitting the data with the one-site binding model of PRISM software (version 9.2.0). […]

For another assay, the target named is T2, 5-HT1A receptor (Homo sapiens, UniProt P08908).
T2 construct: host or cells: CHO-K1 (co-expressing Gα15)
T2 sequence (P08908 1-422): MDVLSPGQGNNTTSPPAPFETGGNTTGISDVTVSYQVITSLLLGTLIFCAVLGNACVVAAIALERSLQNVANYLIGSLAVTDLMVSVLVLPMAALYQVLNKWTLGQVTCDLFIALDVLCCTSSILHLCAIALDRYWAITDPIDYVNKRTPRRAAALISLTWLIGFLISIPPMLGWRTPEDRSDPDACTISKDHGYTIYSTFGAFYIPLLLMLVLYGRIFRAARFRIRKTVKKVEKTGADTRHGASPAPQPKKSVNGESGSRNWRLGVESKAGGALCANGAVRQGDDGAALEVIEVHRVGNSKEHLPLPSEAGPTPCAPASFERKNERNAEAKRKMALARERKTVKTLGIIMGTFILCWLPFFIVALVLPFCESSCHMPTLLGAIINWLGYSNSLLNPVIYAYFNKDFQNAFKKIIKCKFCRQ
The experiment in a line: cAMP-Glo assay in +5-HT1A cells (CHO-K1/5-HT1A/Gα15) with 4 μM forskolin. The settings on record: for cAMP / luminescence response to varying dosage of test molecule: +5HT1A cell cultures, fixed 4 μM forskolin, FIGS. 14H-14L. The format is cell-based. From the text:
(§1) CHO-K1/Gα15 (GenScript, M00257) (−5-HT1A) and CHO-K1/5-HT1A/Gα15 (GenScript, M00330) (+5-HT1A) cells lines were used. Briefly, CHO-K1/Gα15 is a control cell line that constitutively expresses Gα15 which is a promiscuous Gq protein. This control cell line lacks any transgene encoding 5-HT1A receptors, but still responds to forskolin; thus, cAMP response to forskolin should be the same regardless of whether or not 5-HT1A agonists are present. Conversely, CHO-K1/5-HT1A/Gα15 cells stably express 5-HT1A receptor in the CHO-K1 host background. […] In+5-HT1A cells, Gα15 may be recruited in place of Gαi/o, which could theoretically dampen cAMP response (Rojas and Fiedler 2016, Front Cell Neurosci 10: 272). […] Cells were maintained in complete growth media as recommended by supplier (GenScript) which is constituted as follows: Ham's F12 Nutrient mix (HAM's F12, GIBCO #11765-047) with 10% fetal bovine serum (FBS) (Thermo Scientific #12483020), 200 μg/ml zeocin (Thermo Scientific #R25005) and/or 100 μg/ml hygromycin (Thermo Scientific #10687010). The cells were cultured in a humidified incubator with 37° C. and 5% CO2. Cells maintenance was carried out as recommended by the cell supplier. Briefly, vials with cells were removed from the liquid nitrogen and thawed quickly in 37° C. water bath. Just before the cells were completely thawed the vial's outside was decontaminated by 70% ethanol spray. The cell suspension was then retrieved from the vial and added to warm (37° C.) complete growth media, and centrifuged at 1,000 rpm for 5 minutes. The supernatant was discarded, and the cell pellet was then resuspended in another 10 ml of complete growth media, and added to the 10 cm cell culture dish (Greiner Bio-One #664160). The media was changed every third day until the cells were about 90% confluent. The ˜90% confluent cells were then split 10:1 for maintenance or used for experiment.
As 5-HT1A activation inhibits cAMP formation, the agonist activity of test molecules on 5-HT1A was measured via the reduction in the levels of cAMP produced due to application of 4 μM forskolin. The change in intracellular cAMP levels due to the treatment of novel molecules was measured using cAMP-Glo Assay kit (Promega #V1501). Briefly, +5-HT1A cells were seeded on 1-6 columns and base −5-HT1A cells were seeded on columns 7-12 of the white walled clear bottom 96-well plate (Corning, #3903). Both cells were seeded at the density of 30,000 cells/well in 100 μl complete growth media and cultured 24 hrs in humidified incubator at 37° C. and 5% CO2. On the experiment day, the media of cells was replaced with serum/antibiotic free culture media. […] Reduced ATP caused reduced conversion of luciferin to oxyluciferin, conferring diminished luminescence as the result of 5-HT1A activation. […]

The subject of assay [1] is CHO-K1/Gα15 (−5-HT1A) cells. The experiment in a line: cAMP-Glo assay in −5-HT1A control cells (CHO-K1/Gα15) with 4 μM forskolin. It is filed as cell-based. The settings on record: for trend of % cAMP levels with decreasing dosage of test molecule: −5HT1A cell cultures, fixed 4 μM forskolin.
From the text: as §1, with “The supernatant was discarded, and the cell pellet was then resuspended in another 10 ml of complete growth media, and added to the 10 cm cell culture dish (Greiner Bio-One #664160). The media was changed every third day until the cells were about 90% confluent. The ˜90% confluent cells were then split 10:1 for maintenance or used for experiment.” left out
As 5-HT1A activation inhibits cAMP formation, the agonist activity of test molecules on 5-HT1A was measured via the reduction in the levels of cAMP produced due to application of 4 μM forskolin. The change in intracellular cAMP levels due to the treatment of novel molecules was measured using cAMP-Glo Assay kit (Promega #V1501). […] Reduced ATP caused reduced conversion of luciferin to oxyluciferin, conferring diminished luminescence as the result of 5-HT1A activation. […]
A general note: Cyclic AMP is a second messenger, typically raised through Gs and lowered through Gi signalling.

T1 sequence (P28223 whole entry): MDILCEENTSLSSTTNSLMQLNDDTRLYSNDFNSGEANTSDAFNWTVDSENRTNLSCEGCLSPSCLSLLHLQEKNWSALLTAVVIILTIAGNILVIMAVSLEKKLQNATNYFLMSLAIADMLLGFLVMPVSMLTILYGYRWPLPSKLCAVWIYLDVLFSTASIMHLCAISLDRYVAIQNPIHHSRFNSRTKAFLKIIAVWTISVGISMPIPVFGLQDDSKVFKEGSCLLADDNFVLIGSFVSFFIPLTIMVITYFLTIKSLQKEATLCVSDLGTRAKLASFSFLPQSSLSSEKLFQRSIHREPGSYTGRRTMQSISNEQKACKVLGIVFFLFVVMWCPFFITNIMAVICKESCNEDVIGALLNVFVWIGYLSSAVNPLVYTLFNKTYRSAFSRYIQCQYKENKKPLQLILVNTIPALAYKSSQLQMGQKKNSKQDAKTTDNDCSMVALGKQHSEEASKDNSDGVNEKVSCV

For `CN(C)CCc1c[nH]c2cccc(O)c12` [psilocin], the “competition binding curve result (binding / no binding)” value at 5-HT2A receptor is “binding”.
`NCCc1c[nH]c2ccc(O)cc12` [serotonin, reference compound]: the “cAMP / luminescence response to varying dosage of test molecule” value (from here on “cAMP / luminescence response”) at 5-HT1A receptor is on record as 5-HT1A binding activity. Moreover, the “trend of % cAMP levels with decreasing dosage of test molecule” value in assay [1] is reported as “not observed”.
For the compound `CN(C)CCc1c[nH]c2ccccc12` [DMT, reference compound], the “cAMP / luminescence response” value at 5-HT1A receptor is reported as 5-HT1A activity.
As to `N[C@@H](Cc1c[nH]c2ccccc12)C(=O)O` [tryptophan], at 5-HT2A receptor, the “competition binding curve result (binding / no binding)” value is listed as “no binding”.
`CC(=O)NCCc1c[nH]c2cc(CC=C(C)C)ccc12` [compound (IV)]: the “modulation of the impact of serotonin on cAMP / luminescence” value on 5-HT1A receptor (+5-HT1A cell cultures, fixed 4 μM forskolin and 10 uM serotonin, FIGS. 14M, 14N) is listed as “modulated by the presence of compound (IV) in a concentration-dependent manner”; in assay [1] (−5-HT1A cell cultures, fixed 4 μM forskolin and 10 uM serotonin, FIGS. 14M, 14N), “not notable”. For the same compound, the “cAMP / luminescence response” value at 5-HT1A receptor is reported as 5-HT1A modulation activity. Further, the “trend of % cAMP levels with decreasing dosage of test molecule” value in assay [1] is given as “not observed”. At 5-HT2A receptor (unlabeled test compound 3 nM to 1 mM, competition not complete, FIGS. 14E, 14F), the “specific binding of [3H]ketanserin in competition with test compound” value was roughly 50%.
